Assays:
[1] = target: T1, B2 bradykinin receptor (Homo sapiens) (UniProt P30411); test: In vitro binding affinity against Bradykinin receptor B2 at 1 uM concentration
T1 sequence (whole entry): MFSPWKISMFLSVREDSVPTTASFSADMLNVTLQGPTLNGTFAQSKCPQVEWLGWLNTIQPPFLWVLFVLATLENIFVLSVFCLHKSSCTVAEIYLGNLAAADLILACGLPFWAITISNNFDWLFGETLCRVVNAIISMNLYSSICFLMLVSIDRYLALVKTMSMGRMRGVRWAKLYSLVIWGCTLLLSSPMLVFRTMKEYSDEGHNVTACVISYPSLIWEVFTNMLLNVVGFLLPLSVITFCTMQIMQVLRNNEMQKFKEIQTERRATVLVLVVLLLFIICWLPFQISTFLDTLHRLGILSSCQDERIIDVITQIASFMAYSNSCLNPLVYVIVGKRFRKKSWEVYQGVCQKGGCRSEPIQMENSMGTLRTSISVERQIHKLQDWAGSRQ

[2] = target: T2, B1 bradykinin receptor (Homo sapiens) (UniProt P46663); test: In vitro binding affinity against Bradykinin receptor B1 at 1 uM concentration
T2 sequence (whole entry): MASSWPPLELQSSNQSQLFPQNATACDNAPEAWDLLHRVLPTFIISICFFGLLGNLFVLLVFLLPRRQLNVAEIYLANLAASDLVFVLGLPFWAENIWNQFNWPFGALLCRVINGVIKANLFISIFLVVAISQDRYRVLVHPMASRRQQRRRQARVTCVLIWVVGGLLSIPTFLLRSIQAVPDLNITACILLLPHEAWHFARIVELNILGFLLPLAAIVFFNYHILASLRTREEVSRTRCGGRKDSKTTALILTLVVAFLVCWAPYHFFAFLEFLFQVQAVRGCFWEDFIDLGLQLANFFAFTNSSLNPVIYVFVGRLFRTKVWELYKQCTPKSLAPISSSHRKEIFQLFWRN

B2 bradykinin receptor = target: T3, B2 bradykinin receptor (Homo sapiens, UniProt P30411); test: In vitro binding affinity against Bradykinin receptor B2
T3 sequence (P30411 whole entry): T1 sequence (whole entry)

| SMILES | inhibition [1] | inhibition [2] | Ki (B2 bradykinin receptor) |
| --- | --- | --- | --- |
| Cc1ccc2cccc(OCc3c(C)ccc(N4CCC[C@@H]4C(=O)O)c3C)c2n1 | 11% | 1% |  |
| CC(=O)Nc1ccc(/C=C/C(=O)NC[C@H]2CCCN2c2ccc(C)c(COc3cccc4ccc(C)nc34)c2C)cn1 | 76% | 1% | 46 nM |
| CC(=O)Nc1ccc(/C=C/C(=O)NC[C@@H]2CCCN2c2ccc(C)c(COc3cccc4ccc(C)nc34)c2C)cn1 | 84% | 1% | 33 nM |
| Cc1ccc2cccc(OCc3c(C)ccc(N4CCC[C@@H]4CN4C(=O)c5ccccc5C4=O)c3C)c2n1 | 8% | 1% |  |

Continued, values first:

| inhibition [1] | inhibition [2] | Ki (B2 bradykinin receptor) | SMILES |
| --- | --- | --- | --- |
| 12% | 9% |  | Cc1ccc2cccc(OCc3c(C)ccc(N4CCC[C@@H]4CO)c3C)c2n1 |
| 19% | 6% |  | Cc1ccc2cccc(OCc3c(C)ccc(N4CCC[C@H]4C(=O)O)c3C)c2n1 |
| 19% | 1% |  | Cc1ccc2cccc(OCc3c(C)ccc(N4CCC[C@H]4CO)c3C)c2n1 |
| 8% | 5% |  | Cc1ccc2cccc(OCc3c(C)ccc(N4CCC[C@H]4CN4C(=O)c5ccccc5C4=O)c3C)c2n1 |

— ChEMBL document CHEMBL1146611, “Design and synthesis of novel pyrrolidine-containing bradykinin antagonists” (Bioorg Med Chem Lett, 2003)
